Source: patent US12338220B2, “Antiviral pyrazolopiridinone compounds” (Novartis AG, priority 2019, dated 2025)
Read-outs that look alike come from different tables or passages of the source.

Columns and labels:
CMV = test: microbe, parasite or virus in culture; type: cell-based
VZV Ellen strain = test: VZV qPCR assay; conditions: Human alphaherpesvirus 3, MRC5, 48 h, read-out: Cellular activity against VZV (EC50)
CMV-polymerase = CMV-polymerase (Human cytomegalovirus (strain AD169) (HHV-5) (Human herpesvirus 5), UniProt P08546); test: biochemical
[1] = system: KOS strain of HSV-1 virus; test: HSV-1 qPCR assay; conditions: Human alphaherpesvirus 1, 24 h
[2] = system: EBV (SNU-719 cells latently infected); test: EBV qPCR assay; conditions: human gammaherpesvirus 4, 72 h, read-out: Cellular activity against EBV (EC50)
HSV-polymerase = HSV-polymerase (Human herpesvirus 1 (strain 17) (HHV-1) (Human herpes simplex virus 1), UniProt P04293); test: biochemical
[3] = Human betaherpesvirus 5, 72 h, read-out: CMV-Luc Cellular EC50, NN-NHDF cells, MOI 1, 72 hrs
[4] = Human betaherpesvirus 5, read-out: Cellular activity against CMV (EC50), Table 18
[5] = read-out: Cellular activity against HSV-1 (EC50), NN-NHDF cells, MOI 0.01, 24 hrs, qPCR
[6] = read-out: CMV-polymerase Biochemical IC50

## Cn1nc(C(=O)NCc2ccc(Cl)cc2)c2c1C(=O)N(CC1(S(=O)(=O)C(C)(CO)CO)CC1)CC2 [Example 175, N-(4-chlorobenzyl)-6-((1-((1,3-dihydroxy-2-methylpropan-2-yl)sulfonyl)cyclopropyl)methyl)-1-methyl-7-oxo-4,5,6,7-tetrahydro-1H-pyrazolo[3,4-c]pyridine-3-carboxamide]
CMV; [3]
  EC50: 26 nM
CMV; [4]
  EC50: 26 nM
VZV Ellen strain
  EC50: 34 nM
CMV-polymerase; CMV-polymerase Biochemical IC50
  IC50: 3 nM
[1]; [5]
  EC50: 58 nM
[2]
  EC50: 8 nM

## Cn1nc(C(=O)NCc2ccc(C#N)cc2)c2c1C(=O)N(CC1(S(=O)(=O)C(C)(CO)CO)CC1)CC2 [Example 176, N-(4-Cyanobenzyl)-6-((1-((1,3-dihydroxy-2-methylpropan-2-yl)sulfonyl)cyclopropyl)methyl)-1-methyl-7-oxo-4,5,6,7-tetrahydro-1H-pyrazolo[3,4-c]pyridine-3-carboxamide]
CMV; [3]
  EC50: 52 nM
CMV; [4]
  EC50: 52 nM
VZV Ellen strain
  EC50: 74 nM
CMV-polymerase; [6]
  IC50: 2 nM
[1]; [5]
  EC50: 95 nM
HSV-polymerase
  IC50: 39 nM
[2]
  EC50: 14 nM

## Cn1nc(C(=O)NCc2ccc(C#N)cc2)c2c1C(=O)N(CC1(S(=O)(=O)C(C)(C)[C@H](O)CO)CC1)CC2 [Example 193, (R)-N-(4-Cyanobenzyl)-6-((1-((3,4-dihydroxy-2-methylbutan-2-yl)sulfonyl)cyclopropyl)methyl)-1-methyl-7-oxo-4,5,6,7-tetrahydro-1H-pyrazolo[3,4-c]pyridine-3-carboxamide]
CMV; [4]
  EC50: 26 nM
VZV Ellen strain
  EC50: 34 nM
CMV-polymerase; [6]
  IC50: 1 nM
[1]; [5]
  EC50: 58 nM
[2]
  EC50: 8 nM

## N#Cc1ccc(CNC(=O)c2nn(CCO)c3c2CCN(CC2(S(=O)(=O)C4CC4)CC2)C3=O)cc1 [Example 216, N-(4-cyanobenzyl)-6-((1-(cyclopropylsulfonyl)cyclopropyl)methyl)-1-(2-hydroxyethyl)-7-oxo-4,5,6,7-tetrahydro-1H-pyrazolo[3,4-c]pyridine-3-carboxamide]
CMV; [3]
  EC50: 67 nM
CMV; [4]
  EC50: 67 nM
VZV Ellen strain
  EC50: 109 nM
CMV-polymerase; [6]
  IC50: 2 nM
[1]; read-out: Cellular activity against HSV-1 (EC50)
  EC50: 112 nM
[2]
  EC50: 28 nM

## CC(C)(O)Cn1nc(C(=O)NCc2ccc(C#N)cc2)c2c1C(=O)N(CC1(S(=O)(=O)C3(CO)CC3)CC1)CC2 [Example 234, N-(4-Cyanobenzyl)-1-(2-hydroxy-2-methylpropyl)-6-((1-((1-(hydroxymethyl)cyclopropyl)sulfonyl)cyclopropyl)methyl)-7-oxo-4,5,6,7-tetrahydro-1H-pyrazolo[3,4-c]pyridine-3-carboxamide]
CMV; [3]
  EC50: 49 nM
CMV; [4]
  EC50: 49 nM
VZV Ellen strain
  EC50: 115 nM
CMV-polymerase; [6]
  IC50: 1 nM
[1]; [5]
  EC50: 83 nM
[2]
  EC50: 11 nM
